How the values were obtained:
[1] = tested on: WI-38 cell with activated Raf kinase region-estrogen receptor fusion gene; experiment: β-galactosidase positive cells in tamoxifen-inducible activated Raf cellular senescence system; format: cell-based, human; settings: for inhibition of the increase of cellular senescence-specific β-galactosidase positive cell induced by the activation of Raf: Raf activated by 10 nM tamoxifen, 25 μM inhibitor added simultaneously
Protocol: (§1) This is a result of fusing an estrogen receptor gene with a sequence coding for the kinase region of activated Raf gene.
(§2) (1) In accordance with the aforementioned method, induction of cellular senescence was tested by carrying out gene transfer into the WI-38 cell and thereby constructing a system which can induce cellular senescence by the administration of tamoxifen.
(§3) The results are shown in FIG. 12, FIG. 13, FIG. 14 and FIG. 15.

[2] = tested on: WI-38 cell with activated Raf kinase region-estrogen receptor fusion gene; experiment: Cell growth in tamoxifen-inducible activated Raf cellular senescence system; format: cell-based, human; settings: for inhibition of the termination of cell growth induced by the activation of Raf: Raf activated by 10 nM tamoxifen, 25 μM inhibitor added simultaneously
Protocol: as §1, §2, §3

[3] = tested on: MKK6 gene- or MKK6EE gene-introduced human normal fibroblast WI-38; experiment: Ratio of β-galactosidase positive cells in MKK6 or MKK6EE gene-introduced transformed cell; format: cell-based; settings: 10 μmol//L SB203580, culturing period of 6 days
Protocol: Specifically, young and senescent cells of the human normal fibroblast WI-38 were respectively washed with PBS and then fixed using 0.5% glutaraldehyde aqueous solution. After the fixation, the cells were soaked in a staining solution [prepared by dissolving 1 mg/ml of X-gal (5-bromo-4-chloro-3-indolyl-β-galactosidase), 5 mmol//L potassium ferrocyanide, 5 mmol//L potassium feriocyanide and 1 mmol//L magnesium chloride in phosphate buffered saline (PBS; pH 6.0)] and allowed to react at 37° C. for 5 hours or more.
Next, the procedure described in Reference Example 1 (2) was repeated, except that the two species of the transformed cell of the present invention and one species of a control cell wherein the vector alone was introduced, obtained by repeating the same procedure of Example 2(1), (cells after a culturing period of 6 days in each case; SB203580-untreated cells) and the two species of the transformed cell of the present invention and one species of a control cell wherein the vector alone was introduced, obtained by repeating the same procedure of Example 2(2), (cells after a culturing period of 6 days in each case; SB203580-treated cells) were used. […]

[4] = tested on: human normal fibroblast WI-38; experiment: Cell morphology and cellular senescence-specific β-galactosidase activity in WI-38 cells; format: cell-based; settings: senescent cell (61 times of division), SB203580-treated
Protocol: Specifically, young and senescent cells of the human normal fibroblast WI-38 were respectively washed with PBS and then fixed using 0.5% glutaraldehyde aqueous solution. After the fixation, the cells were soaked in a staining solution [prepared by dissolving 1 mg/ml of X-gal (5-bromo-4-chloro-3-indolyl-[…]), 5 mmol//L potassium ferrocyanide, 5 mmol//L potassium feriocyanide and 1 mmol//L magnesium chloride in phosphate buffered saline (PBS; pH 6.0)] and allowed to react at 37° C. for 5 hours or more.
In addition, cell morphology and β-galactosidase activity in each treated group were analyzed in accordance with the procedure described in Reference Example 1(2).

[5] = tested on: human normal fibroblast WI-38; experiment: Ratio of S phase cell by FACS analysis (BrdU labeling) in young and senescent WI-38 cells; format: cell-based
Protocol: Also, the ratio of S phase cells in each treated group was determined by FACS analysis in accordance with the procedure described in the following Example 2(3-a), and the results shown in FIG. 4. The symbol “+” in FIG. 4 means that it was treated with 10 μmol//L of SB203580.
[…] Next, the cells were fixed with 70% ethanol and treated with 2 mol//L hydrochloric acid for 30 minutes. Subsequently, they were neutralized with 0.1 mol//L sodium borate and then allowed to react with FITC-labeled anti-BrdU antibody (manufactured by BECTON DICKINSON) for 1 hour. After completion of the reaction, the cells were washed with a washing buffer [PBS containing 0.5% Tween 20 and 1% bovine serum albumin (BSA)] and suspended in a PBS solution containing 5 μg/ml ProPidium Iodide (PI). The samples were analyzed by a two dimensional flow cytometry.

[6] = tested on: MKK6 gene- or MKK6EE gene-introduced human normal fibroblast WI-38; settings: 10 μmol//L SB203580 from the 4th day after infection, 6 days culture
Protocol: As the target cell, young cell (42 PD; 5×10^5 cells/10 cm dish) of the human normal fibroblast WI-38 was cultured for 8 hours in the virus supernatant to which polybrene (final concentration=8 μg/ml) had been added. The virus supernatant was once removed, and then fresh virus supernatant [containing polybrene (final concentration=8 μg/ml)] was again added, followed by the culturing for 8 hours. Each of the infection-treated cells was cultured for 3 days in DMEM containing puromycin (2.5 μg/ml).
On the 4th day after carrying out the infection, the medium was changed to DMEM containing 2.5% dimethyl sulfoxide (DMSO), followed by the culturing for 6 days. […] The relative number of cells during these 6 days was measured every other day using a commercially available kit [Cell Counting Kit (WST-1 assay), manufactured. by DOJINDO].
Measurement and calculation of the relative cell number were specifically carried out by the following method. […] After the reaction, measurement was carried out using a plate reader (measuring wave length=450 nm). These were measured on three samples on each of the measuring days (on the 0th, 2nd, 4th and 6th days) during the growth period, and the average values were used as the data of respective measuring days. The relative number of cells of measured values on respective measuring days was calculated by defining the average of measured values on the 0th day as 1. […]

[7] = tested on: human normal fibroblast WI-38; experiment: Cell growth curve (WST-1 relative cell number) of young and senescent WI-38 cells with p38 protein inhibitor; format: cell-based
Text: In the example, effect of a p38 protein inhibitor SB203580 was compared using the same young cell (42 times of division) and senescent cell (61 times of division) of the human normal fibroblast WI-38 used in Reference Example 1. Specifically, the same procedure of the following Example 2 (2) was repeated, except that a young cell (42 times of division) and a senescent cell (61 times of division) of the human normal fibroblast WI-38 cultured in the same manner in Reference Example 1(1) were used instead of the transformed cell.
In FIG. 3, the polygonal line a is cell growth curve of the young cell in the presence of SB203580, the polygonal line b is cell growth curve of the young cell in the absence of SB203580, the polygonal line c is cell growth curve of the senescent cell in the presence of SB203580 and the polygonal line d is cell growth curve of the senescent cell in the absence of SB203580. The symbol “+SB” in FIG. 3 means that it was treated with 10 μmol//L of SB203580.
The relative number of cells during these 6 days was measured every other day using a commercially available kit [Cell Counting Kit (WST-1 assay), manufactured. by DOJINDO].
The WST-1 assay is a method to know indirectly degree of cell growth ability with the use of the calorimetric determination of the activity of dehydration reactions wherein intracellular lactate dehydrogenase and the like are related.
Measurement and calculation of the relative cell number were specifically carried out by the following method. That is, 1,000 cells per each well of a 96 well plate were precultured for 24 hours. […] After the reaction, measurement was carried out using a plate reader (measuring wave length=450 nm). These were measured on three samples on each of the measuring days (on the 0th, 2nd, 4th and 6th days) during the growth period, and the average values were used as the data of respective measuring days. The relative number of cells of measured values on respective measuring days was calculated by defining the average of measured values on the 0th day as 1.

[8] = tested on: phosphorylation type p38 protein (active type p38 protein); experiment: Western blotting of phosphorylated state of p38 protein; format: cell-based, human; settings: young cell (42 PD), 30 μmol//L anisomycin for 30 minutes, positive control, versus untreated young cell
Text: In this reference example, the phosphorylated state of p38 protein in young and senescent cells of the human normal fibroblast WI-38 was confirmed by a Western blotting respectively using an antibody capable of detecting total p38 protein and another antibody capable of specifically detecting a phosphorylation type p38 protein (namely active type p38 protein) alone.
Specifically, young and senescent cells of the human normal fibroblast WI-38 (about 5×10^6 cells) cultured in the same manner as in Reference Example 1(1) were respectively dissolved in 0.1 ml of a buffer solution for dissolution [lysis buffer; 150 mmol//L sodium chloride, 0.5% NP-40, 50 mmol//L Tris-HCl (pH 7.5), 3 mmol//L EDTA, 3 mmol//L EGTA, 3 mmol//L glycerophosphate, […] Na3VO4, 1 μg/ml leupeptin and 1 mmol//L phenylmethanesulfonyl fluoride (PMSF)].
Subsequently, each extraction sample corresponding to 30 μg as the amount of protein was separated by an SDS polyacrylamide gel electrophoresis in the usual way and then transferred on a membrane (Immobilon-P membrane; manufactured by Millipore). After subjecting the membrane to a blocking treatment using a commercially available blocking agent (Block Ace; manufactured. by Dainippon Pharmaceutical), a primary antibody reaction and a secondary antibody reaction were carried out in order. […]

[9] = young cell (42 times of division), 10 μmol//L SB203580, same in presence or absence
[10] = induction of cellular senescence via Raf-estrogen receptor fusion

COc1cccc(-c2cc(=O)c3ccccc3o2)c1N [PD98059]
inhibition of the increase of cellular senescence-specific β-galactosidase positive cell induced by the activation of Raf [1]: partially inhibited | inhibition of the termination of cell growth induced by the activation of Raf [2]: partially inhibited

C[S+]([O-])c1ccc(-c2nc(-c3ccc(F)cc3)c(-c3ccncc3)[nH]2)cc1 (stereo not shown) [SB203580, 4-[4-(4-fluorophenyl)-2-[4-(methylsulfinyl)phenyl]-1H-imidazol-5-yl]-pyridine]
increase of the cellular senescence-specific β-galactosidase positive cells [3]: inhibited | cellular senescence-specific β-galactosidase-positive degree [4]: low | morphology of the flat cytoplasm [4]: became thin | S phase cell ([5]; senescent cell (61 times of division), 10 μmol//L SB203580, 72 hours of BrdU labeling, untreated about 5%): about 25% | S phase cell [5, 9]: about 20% | inhibition of the increase of cellular senescence-specific β-galactosidase positive cell induced by the activation of Raf [1]: more strongly than the PD98059 | growth inhibitory effect by the MKK6 gene or MKK6EE gene [6]: inhibited | anti-aging activity upon senescent cell ([7]; senescent cell (61 PD) of WI-38, illustrative data not shown): showed the anti-aging activity | cell growth in comparison with the untreated case ([7]; senescent cell (61 times of division), 10 μmol//L SB203580): accelerated growth | doubling time [7, 9]: about 2 days | inhibition of the termination of cell growth induced by the activation of Raf [2]: more strongly than the PD98059

COc1ccc(C[C@H]2NC[C@H](O)[C@H]2OC(C)=O)cc1 [anisomycin]
active type p38 protein amount [8]: increased

CC/C(=C(\c1ccccc1)c1ccc(OCCN(C)C)cc1)c1ccccc1 [tamoxifen]
tamoxifen concentration at which increase of cellular senescence-specific β-galactosidase positive cell was observed [1, 10]: ≥ 1 nM | tamoxifen concentration at which termination of cell growth was observed [2, 10]: ≥ 1 nM
